Test system: Schistosoma mansoni
Assay: High throughput screening of compounds against Schistosoma mansoni motility
Format: functional
Design: dose or concentration left out as unconfirmed

SMILES | Percent Effect [%]
CS(=O)(=O)NCCNC(=O)C1(c2cccc(Cl)c2)CC1 | 21.58
CSCCCN1CCn2nc(CNC(C)=O)cc2C1 | -25.09
Cc1ccc(F)c(C(=O)N2CCN(S(C)(=O)=O)[C@@H](C)C2)c1 | -35.69
CC(=O)NCC1CCN(CC2CCOc3ccccc3C2)CC1 (configuration not stated) | -62.7
NC(=O)CN1CCC(NC(=O)c2ccn(-c3cccc(F)c3)n2)CC1 | 5.204
CC(C)C(=O)NCCNc1nccc(-c2cc(C(=O)O)ccn2)n1 | 19.02
CN(CCCc1cnn(C)c1)C(=O)C1COc2ccccc2C1 (configuration not stated) | -70.43
Cc1nc2n(n1)CC(Nc1cc(C(F)(F)F)nc3ncnn13)CC2 (configuration not stated) | -11.7
CC(=O)N1CCC(Oc2ccc(Cl)cn2)CC1 | -33.97
O=C(c1cc(Cl)c2c(c1)OCO2)N1CCN(c2ccccn2)CC1 | -95.4
CCN(CC)C(=O)c1ccc(-c2ccsc2)nc1C | -45.64
Cc1cc(C(=O)N2CCC(c3nccn3CCCN(C)C)CC2)no1 | -19.46
Cn1c(Cn2cccn2)nnc1C1CCN(Cc2cccnc2N)CC1 | -7.123
O=C(c1cc(Cl)c2c(c1)OCO2)N1CCN(c2nccs2)CC1 | -51.67
Oc1ccc(N2CCN(Cc3cc4c(cc3Br)OCCO4)CC2)cc1 | -18.88
COc1cccc(C(=O)N2CCCC(C(=O)CCc3ccccc3)C2)c1 (configuration not stated) | 20.31
Cc1ccsc1CN(Cc1ccccn1)CC(C)C | 6.222
COCCN(Cc1ccc(F)cc1Cl)C(=O)c1ccncc1 | -38.63
CC(C)c1nc(CN(C)C2CCN(Cc3nc(C4CC4)no3)C2)no1 (configuration not stated) | -10.87
CCOCCC(=O)N1CCCC(c2ncc[nH]2)C1 (configuration not stated) | -61.02
Cc1ccnc(OCC(=O)N2CCC(C(N)=O)CC2)n1 | -71.31
OC1CCN(Cc2cc3c(cc2Br)OCCO3)CC1 | 8.478
CCOc1cc(C)nc(N2CCN(Cc3nccn3C)CC2)n1 | -40.52

SMILES | Percent Effect [%]
CNC(=O)C(C)(C)NC(=O)c1cc(OCC2CCC2)cc(C(=O)OC)c1 | -68.4
COC(=O)c1cc(OCC2CCC2)cc(C(=O)N[C@H]2CC[C@H](O)CC2)c1 | -76.62
Cc1cc(N(C)Cc2noc(C)n2)n2nc(C)c(C)c2n1 | -16.19
Cc1nc[nH]c1CN1C[C@@H]2CC[C@H](C1)N(C(=O)CCc1cnn(C)c1)C2 | -10.53
CC(C)C1CN(c2ncc(F)cn2)CCC(=O)N1Cc1ccc(F)cc1 (configuration not stated) | 75.74
O=C(CCc1cc2n(n1)CCCN(Cc1ccccc1F)C2)NC1CC1 | -12.36
CCc1cc(=O)[nH]c2nnc(SCC(=O)OC)n12 | -72.76
CC(C)C(=O)N1CCN(C(=O)c2cc(C(C)C)on2)[C@H]2CS(=O)(=O)C[C@H]21 | -39.14
O=C(c1ccccn1)N1CCCC(c2nccn2CC2CCC2)C1 (configuration not stated) | -9.087
Cn1c(Cn2ccnc2)nnc1C1CCN(Cc2cccnc2N)CC1 | -10.4
CS(=O)(=O)CCSc1cccc(C#N)c1 | -35.13
CN(CC(F)(F)F)C(=O)C1CSCN1C(=O)OC(C)(C)C (configuration not stated) | -9.988
CC(C)(C)C(=O)NCCn1ccc(-c2ccncc2)n1 | -55.77
CC(NC(=O)C1=NN(C)C(=O)CC1)c1ccc(F)cc1F (configuration not stated) | -36.47
Cc1ccc(S(=O)(=O)NC2CC2)cc1C | -24.32
Cc1ccc(-c2cn[nH]c2C2CCCN(c3nccc(N)n3)C2)cc1 (configuration not stated) | 94.46
O=C(NCCn1ccc(-c2ccncc2)n1)c1ccncc1 | -35.45
CC[C@@]1(O)CCN(C(=O)c2ccsc2)C[C@H]1O | -27.08
CCCOc1cc(C)ccc1NC(=O)NCCC(=O)N(C)C | -17.12
Cc1cccc(C(=O)N2CCN(S(C)(=O)=O)[C@@H](C)C2)c1C | -56.44
CC(C#N)CSc1ccccc1NCC(=O)NCc1ccccc1 (configuration not stated) | -63.78
Cc1cccc(CNCc2c(C)nn(C)c2N2CCOCC2)n1 | -105.3
Cn1cnc(S(=O)(=O)N2CCN(Cc3ccco3)CC2)c1Cl | -70.1

SMILES | Percent Effect [%]
COc1ccc(NC(C)C(=O)N2CCN(Cc3ccccc3)CC2)cn1 (configuration not stated) | -29.98
NC(=O)CSCCC(=O)N1CCCC1c1ccsc1 (configuration not stated) | 10.97
O[C@H]1[C@H](n2cc(-c3ccccc3)nn2)c2ccccc2C12CCNCC2 | 3.648
Cc1nc(C(C)(C)NC(=O)Nc2cccc(C#N)c2)no1 | -35.79
CS(=O)(=O)Cc1cccc(C(=O)NCC2Cc3ccccc3O2)c1 (configuration not stated) | -78.27
Cc1nc(C2CCCN(C(=O)c3sccc3C3CC3)C2)no1 (configuration not stated) | -33.52
CN(C)C(=O)C1CCCN1CCCNC(=O)c1ccccc1F (configuration not stated) | -45.94
O=C(Nc1ccnc(OC2CCOC2)c1)C1CCC1 (configuration not stated) | -37.1
CN(C)C(=O)c1ccc2c(c1)N(C)C(CC(=O)NCCC(C)(C)C)CO2 (configuration not stated) | -13.7
Cc1ccc(C(=O)NC(C)CN2CCCC2=O)c(=O)[nH]1 (configuration not stated) | -45.23
Cc1ccc(NC(C)C(=O)NCc2cccs2)cc1C (configuration not stated) | -60.11
CN(C)S(=O)(=O)N1CCC(Oc2ccc(C#N)cc2)CC1 | 21.82
Cc1cnn(CC2CCCN2Cc2coc(-c3cccs3)n2)c1 (configuration not stated) | -52.32
Cc1ncc(-c2nc3cc(S(=O)(=O)N4CCCC4)ccc3n2C)cn1 | -72.39
Cc1cc(N2CCC(c3nnc(CN(C)C)n3C3CC3)CC2)ccn1 | -0.2407
COCCN1CCC(CN(CC2CCCO2)C(=O)CCNC(C)=O)CC1 (configuration not stated) | -20.27
Cc1n[nH]c(C)c1C1COCCN1C(=O)Cc1cccc(F)c1 (configuration not stated) | -66.08
CCC1CN(Cc2ccccc2)CCN1Cc1nnc(C2CCC2)o1 (configuration not stated) | 44.59
COc1cccc(N2CCN(Cc3ncc[nH]3)CC2=O)c1 | -64.93
COc1ccccc1NC(=O)NCC(O)(c1ccccc1)C1CC1 (configuration not stated) | 57.61
COc1ccc(Br)c(C(=O)NCC2CCN(C(=O)c3ccoc3)CC2)c1 | -63.91
Cc1cc(F)ccc1CNCCn1cccn1 | -28.39
Cc1cc(N2CCN(Cc3nccn3C)CC2)cc(C)n1 | -24.56

SMILES | Percent Effect [%]
Cc1cc(CC(=O)N2CCCC2c2nc(C(C)C)no2)on1 (configuration not stated) | -26.98
CC(C)c1cnc(CNc2c(F)cccc2-n2cccn2)o1 | 20.62
CCC(C)N(C)S(=O)(=O)c1ccc(CCNC(C)=O)s1 (configuration not stated) | -44.53
CCc1cnc2c(c1NCc1ccncc1)c(=O)n(C)c(=O)n2C | -33.12
Cc1csc(N2CCN(CCc3ccccn3)CC2C)n1 (configuration not stated) | -16.94
CCOCCN1CCN(Cc2nnc(C3CC3)o2)CC1CC (configuration not stated) | -4.218
O=C(NS(=O)(=O)c1cc(Cl)sc1Cl)c1cccc2c1OCCO2 | -35.56
O[C@H]1[C@H](n2cc(-c3cccnc3)nn2)c2ccccc2C12CCNCC2 | -35.88
CC(O)CN1CCC(CNCc2ccc(S(C)(=O)=O)cc2)CC1 (configuration not stated) | -16.24
O=C(Nc1cccc(CN2CCOC2=O)c1)N1CCOCC1 | 11.29
CC(NC(=O)N(C)Cc1ccncc1)c1nncn1C (configuration not stated) | -16.24
CC1CCCN(CCNC(=O)c2cncnc2C(C)C)C1 (configuration not stated) | -12.57
CC(C)NC(=O)c1nnn(-c2cccc(C(F)(F)F)c2)c1N | 32.01
CCNS(=O)(=O)c1ccc(C)c(C(=O)N(C)Cc2ccco2)c1 | -32.86
CCC(C)NC(=O)Nc1ccc(CN2CCOC2=O)cc1 (configuration not stated) | 3.949
Cc1nc(C)n(CC2CN(CC(=O)Nc3nccs3)CCO2)n1 (configuration not stated) | -3.889
CC1CCN(Cc2cnc(S(=O)(=O)CC3CC3)n2CC2CCCO2)CC1 (configuration not stated) | -34.33
Cc1occc1C(=O)N1CCC2(CCC(=O)N(CC(N)=O)C2)CC1 | 13.97
CN(C)C(=O)N1C[C@@H]2CC[C@H](C1)N(Cc1ccc3nsnc3c1)C2 | -20.59
CS(=O)(=O)c1ccccc1C(=O)NCC1Cc2ccccc2O1 (configuration not stated) | -25.81
O=C(c1ccc[nH]1)N1CCC(c2nccn2Cc2ccncc2)CC1 | -12.18
O=C(c1cnc(COc2ccccc2)nc1O)N1CCOCC1 | 1.503
O=C(Nc1nccs1)N1CCCC(N2CCNC2=O)C1 (configuration not stated) | -22.52

SMILES | Percent Effect [%]
Cn1c(C(F)(F)F)nn(CCNC(=O)CSCc2ccccc2)c1=O | -2.069
O=C(NCCN1CCC(c2cccs2)CC1)c1ccccc1C(F)(F)F | 2.003
CCN1CC(C(=O)NCc2ccnc(-n3ccnc3C)c2)CC1=O (configuration not stated) | -29.1
O=C(NCCCn1cccn1)C1(c2ccc(Br)cc2)CC1 | 14.19
Cc1ncsc1CCC(=O)NCc1cc2n(n1)CCN(C(=O)N(C)C)C2 | 10.91
O=C(CSc1nc2c(cnn2CCO)c(=O)[nH]1)N1CCCCCC1 | -11.33
CC(C)c1n[nH]c(C2CN(C(=O)CCCn3cccn3)CCO2)n1 (configuration not stated) | 21.88
CCCC(C)CN1CCC(n2cc(CCCO)nn2)CC1 (configuration not stated) | -31.48
N#Cc1ccc(CNCC2CCN(CCO)CC2)cc1 | -28.87
CCn1c(N)nc2cc(C(=O)NCCc3ccccc3C)cnc21 | -46.13
COc1ccc(CNC(=O)NCC2CCOC2)c(C(F)(F)F)c1 (configuration not stated) | -32.81
CC(C)(C)NC(=O)C1CSCN1S(=O)(=O)c1cccc(F)c1 (configuration not stated) | -27.85
CC(C)N1CCC(N2CCN(C3CCC3)CC2CCO)CC1 (configuration not stated) | 7.869
Cc1nc(CN2CCC(N(C)Cc3noc(C(C)C)n3)C2)cs1 (configuration not stated) | -19.62
CCn1nc2c(cc1=O)CN(Cc1nc3ccccc3c(=O)[nH]1)CC2 | -62.65
Cc1nn(C)c(C)c1C1COCCN1C(=O)Cc1cccc(F)c1 (configuration not stated) | -11.98
CN(Cc1ncc[nH]1)S(=O)(=O)c1cccc(C(=O)N2CCOCC2)c1 | -64.53
CC1CCN(S(=O)(=O)c2cccn(CC(=O)NC3CCCC3)c2=O)CC1 | -45
c1ccc(-c2noc3c2CN(CC2CC2)CC3)cc1 | -116.8
O=C(CSc1ncccn1)N1C[C@H]2CC[C@@H]1CN(Cc1ccncc1)C2 | -45.84
